How the values were obtained:
Experiment in all cases: relative viability (nuclei count vs DMSO), 5 days (fraction); higher = more cells survive
[1] = compound: Cn1cc(-c2cnn3c(N)c(Br)c([C@@H]4CCCNC4)nc23)cn1 + CS(=O)(=O)CCNCc1ccc(-c2ccc3ncnc(Nc4ccc(OCc5cccc(F)c5)c(Cl)c4)c3c2)o1 [Lapatinib] (partner 2 µM)
In short: (§1)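 For relative viability, nuclei counts in treated wells were divided by those in vehicle wells. Lung cancer cell lines had been pin-tool dosed in 1536-well plates the day after seeding and cultured for 5 days, then fixed and stained in one step (final 0.05% Triton X-100, 1% formaldehyde, 1 ug/ml Hoechst) and imaged at 4×. Doses were one drug alone or a fixed anchor-drug dose plus five library-drug doses (not always all listed) in √10 steps, and values are duplicate-plate medians.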

[2] = compound: Cn1cc(-c2cnn3c(N)c(Br)c([C@@H]4CCCNC4)nc23)cn1 + C[C@@H](Oc1cc(-c2cnn(C3CCNCC3)c2)cnc1N)c1c(Cl)ccc(F)c1Cl [Crizotinib] (partner 1 µM)
In short: as §1

[3] = compound: Cn1cc(-c2cnn3c(N)c(Br)c([C@@H]4CCCNC4)nc23)cn1 + Cc1cc(Nc2cc(N3CCN(C)CC3)nc(Sc3ccc(NC(=O)C4CC4)cc3)n2)n[nH]1 [Tozasertib] (partner 0.1 µM)
In short: as §1

[4] = compound: Cn1cc(-c2cnn3c(N)c(Br)c([C@@H]4CCCNC4)nc23)cn1 + Nc1ncn([C@H]2C[C@H](O)[C@@H](CO)O2)c(=O)n1 [Decitabine] (partner 2 µM)
In short: as §1

Cell Line	relative viability ([1]; first compound 0.05 µM)	relative viability ([1]; first compound 0.1581 µM)	relative viability ([1]; first compound 0.5 µM)	relative viability ([1]; first compound 1.581 µM)	relative viability ([1]; first compound 5 µM)	relative viability ([2]; first compound 0.05 µM)	relative viability ([2]; first compound 0.1581 µM)	relative viability ([2]; first compound 0.5 µM)	relative viability ([2]; first compound 1.581 µM)	relative viability ([2]; first compound 5 µM)	relative viability ([3]; first compound 0.05 µM)	relative viability ([3]; first compound 0.1581 µM)	relative viability ([3]; first compound 0.5 µM)	relative viability ([3]; first compound 1.581 µM)	relative viability ([3]; first compound 5 µM)	relative viability ([4]; first compound 0.05 µM)	relative viability ([4]; first compound 0.1581 µM)	relative viability ([4]; first compound 0.5 µM)	relative viability ([4]; first compound 1.581 µM)	relative viability ([4]; first compound 5 µM)
201T	1	1.09	1.02	0.951	1.11	1.03	1.03	1.06	1.05	1.07	0.932	0.992	0.898	0.776	0.758	0.809	0.856	0.844	0.882	0.93
A-427	0.979	1.14	0.986	0.839	0.959	0.938	1.02	0.922	0.725	0.566	0.185	0.246	0.206	0.192	0.154	0.534	0.591	0.555	0.544	0.33
ABC-1	1.18	1.18	1.18	1.26	1.04	1.16	0.935	1.06	0.563	0.316	0.159	0.156	0.219	0.127	0.136		1.3	1.02	1.18	0.731
BEN	0.84	0.762	0.655	0.736	0.516	0.911	0.969	0.861	0.745	0.608	0.606	0.494	0.467	0.714	0.489	0.701	0.763	0.663	0.709	0.629
CAL-12T	0.713	0.735	0.723	0.618	0.395	0.612	0.459	0.485	0.321	0.176	0.38	0.326	0.255	0.174	0.113					
COR-L23	0.966	1.26	1.03	0.471	0.445	0.594	0.809	0.731	0.518	0.179	0.201	0.158	0.211	0.163	0.102	0.407	0.489	0.481	0.354	0.248
COR-L 105	0.323	0.386	0.393	0.354	0.311	0.739	0.722	0.713	0.535	0.462	0.31	0.4	0.293	0.312	0.321	0.66	0.703	0.563	0.597	0.608
Calu-6	1.2	0.745	0.678	0.329	0.193	0.964	0.643	0.603	0.253	0.167										
ChaGo-K-1						1.15	1.36	1.24	0.92	1.05	0.222	0.22	0.227	0.224	0.225	0.52	0.559	0.526	0.563	0.601
EBC-1	0.207	0.183	0.24	0.223	0.192	0.179	0.179	0.186	0.174	0.17										
EKVX	0.204	0.215	0.192	0.193	0.184	0.942	1.27	1.09	0.821	0.945	0.423	0.449	0.448	0.462	0.344	0.768	0.414	0.343	0.571	0.41
EMC-BAC-2	0.843	0.987	0.961	0.852	0.889	0.73	0.769	0.715	0.646	0.703	0.277	0.292	0.251	0.252	0.218	0.976	1.02	0.981	0.827	0.887
EPLC-272H	0.849	0.991	0.843	0.688	0.674	0.943	1.07	1	0.945	0.826	0.252	0.249	0.25	0.247	0.226	0.342	0.304	0.336	0.303	0.253
H3255	0.25	0.214	0.247	0.264	0.204	0.799	0.852	0.942	0.729	0.5	0.614	0.569	0.727	0.224	0.447	0.624	0.586	0.585	0.647	0.474
HARA	0.728	0.873	1.08	0.626	0.179	0.935	1.12	0.987	0.842	0.369	0.115	0.616	0.0879	0.0826	0.0524	0.691	0.497	0.624	0.584	0.41
HCC-15	0.952	0.949	0.648	0.811	0.827	0.926	0.98	0.877	0.722	0.652	0.401	0.392	0.386	0.256	0.212	0.652	0.689	0.633	0.552	0.561
HCC-44	1.01	1.15	1.1	0.8	0.968	0.906	1.02	0.913	0.86	0.789		0.875	1.12	0.637	0.618	0.887	1.06	1.04	0.969	0.964

Cell Line	relative viability ([1]; first compound 0.05 µM)	relative viability ([1]; first compound 0.1581 µM)	relative viability ([1]; first compound 0.5 µM)	relative viability ([1]; first compound 1.581 µM)	relative viability ([1]; first compound 5 µM)	relative viability ([2]; first compound 0.05 µM)	relative viability ([2]; first compound 0.1581 µM)	relative viability ([2]; first compound 0.5 µM)	relative viability ([2]; first compound 1.581 µM)	relative viability ([2]; first compound 5 µM)	relative viability ([3]; first compound 0.05 µM)	relative viability ([3]; first compound 0.1581 µM)	relative viability ([3]; first compound 0.5 µM)	relative viability ([3]; first compound 1.581 µM)	relative viability ([3]; first compound 5 µM)	relative viability ([4]; first compound 0.05 µM)	relative viability ([4]; first compound 0.1581 µM)	relative viability ([4]; first compound 0.5 µM)	relative viability ([4]; first compound 1.581 µM)	relative viability ([4]; first compound 5 µM)
HCC-78	0.841	0.92	0.786	0.641	0.245	0.323	0.391	0.378	0.344	0.218		0.456	0.404	0.407	0.279	0.733	0.729	0.783	0.675	0.492
HCC-366	1.05	1.32	0.66	0.649	0.382	0.53	0.737	0.474	0.405	0.209	0.144	0.703	0.169	0.0808	0.0856	0.307	0.338	0.334	0.347	0.247
HCC-827	0.234	0.197	0.196	0.178	0.152	0.929	1	0.909	0.899	0.871	0.426	0.392	0.439	0.516	0.394	0.34	0.38	0.339	0.361	0.305
HOP-62	1.05	1.27	1.08	0.896	0.792	0.999	1.07	1.01	0.925	0.884	0.334	0.348	0.335	0.252	0.249	0.252	0.2	0.191	0.239	0.269
IA-LM	0.927	0.624	0.581	0.44	0.225	0.944	1.01	0.886	0.321	0.271										
LCLC-103H						1.04	1.11	1.13	1.03	1.1	0.543	0.57	0.469	0.364	0.313	0.745	0.73	0.809	0.695	0.816
NCI-H441						0.639	1.24	0.648	0.703	0.709	0.922	0.777	0.651	0.675	0.657	0.257	0.249	0.26	0.22	0.257
NCI-H1299	0.982	0.976	0.923	0.767	0.757	0.992	0.931	0.965	0.676	0.707										
NCI-H1395	1.01	0.634	0.756	0.833	0.397						0.804	0.68	0.789	0.543	0.436	0.761	0.554	0.63	0.501	0.378
NCI-H1563	0.941	0.861	0.888	0.859	0.888	0.78	0.812	0.933	0.782	0.8										
NCI-H1648											0.395	0.436		0.377	0.381	0.383	0.483	0.487	0.467	0.504
NCI-H1703	1.18	0.454	0.481	0.205	0.124	0.671	0.363	0.325	0.18	0.134										
NCI-H1792	0.84	1.06	0.335	0.718	0.784	0.843	0.861	0.861	0.656	0.582						0.542	0.627	0.587		0.516
NCI-H1793	0.709	0.926	0.689	0.753	0.259						0.39	0.806	0.282	0.341	0.2	0.532	0.543	0.542	0.498	0.178
NCI-H2228	1.54	1.14	1.2	0.493	0.378	0.502	0.491	0.404	0.419	0.277	0.249	0.221	0.205	0.211	0.124					
NCI-H2342											0.547	0.522	0.531	0.52	0.408	0.728	0.731	0.696	0.639	0.742

From the supplement of paper PMC10307832
